Our source for the IC50 and melting point values is patent publication US10765681B2 (Academia Sinica, priority 2016, dated 2020).

Where two headings read alike, the source gives them in different places.

Data set [1] has as its system MDA-MB231 breast cancer cells. The data set can be described thus: MTT assay, growth of MDA-MB231 breast cancer cells. It counts as cell-based. The conditions noted are these: Homo sapiens, MDA-MB-231, MDA-MB231 triple-negative breast cancer cell line, Table 3. The procedure: The inhibitory effect of the exemplary compounds against MDA-MB231 breast cancer cell and H1975 lung cancer cell was evaluated. The cytotoxic activity of test compounds was examined by performing a MTT assay.
A general note: Tetrazolium assays rely on reduction of a dye to a coloured formazan, in cell work by metabolically active cells.

For data set [2], the system named is H1975 lung cancer cells. The data set can be described thus: MTT assay, growth of H1975 lung cancer cells. In kind it is cell-based. Particulars: Homo sapiens, NCI-H1975, MTT.
Setting [3] is: H1975 lung cancer cell line, Table 3, read-out: IC50 H1975.

The term IC50 denotes the concentration that inhibits the measured activity by half. For orientation: melting point means the temperature of the solid-liquid transition. With `CCOc1ccc(-c2nc(C#N)c3nc(OC(=O)OC(C)(C)C)n(-c4ccccc4OC)c3n2)cc1` [Compound 17b, Tert-butyl 6-cyano-2-(4-ethoxyphenyl)-9-(2-methoxyphenyl)purin-8-yl carbonate], the melting point was in the range of 278 to 280 °C. In data set [1], this compound came in with an IC50 of 22 µM. Also, in data set [2] (setting [3]), the concentration for half-maximal inhibition (IC50) is 13 µM.
On the same counts, the results for `CCOc1ccc(-c2nc(C#N)c3nc(N(C(C)=O)C(C)=O)n(-c4ccccc4OC)c3n2)cc1` [Compound 35a, N-Acetyl-N-[6-cyano-2-(4-ethoxyphenyl)-9-(2-methoxyphenyl)purin-8-yl]acetamide] are 210 to 212 °C, 11.9 µM and 14.7 µM.
On the same counts, the results for `CCOc1ccc(-c2nc(C(=N)NOC(=O)Oc3ccccc3)c3[nH]c(=O)n(-c4ccccc4OC)c3n2)cc1` [Compound 22b, 2-(4-Ethoxyphenyl)-9-(2-methoxyphenyl)-8-oxopurine-6-[N-(phenoxycarbonyl)oxy]carboximidamide] are 209 to 211 °C, 3.9 µM and 3.1 µM.
The compound `C=CCn1c(=O)n(-c2ccccc2OC)c2nc(-c3ccc(OCC)cc3)nc(C(=N)NOC(=O)Oc3ccccc3)c21` [Compound 23a, 7-Allyl-2-(4-ethoxyphenyl)-9-(2-methoxyphenyl)-8-oxopurine-6-[N-(phenoxycarbonyl)oxy]carboximidamide] showed a melting point of 83 to 85 °C. For the same compound, the concentration for half-maximal inhibition (IC50) in data set [1] stood at 48.1 µM. In addition, the half-maximal inhibitory concentration (IC50) in data set [2] (setting [3]) was determined as 51.1 µM.
On the same counts, the results for `CCOc1ccc(-c2nc(C(=O)NN)c3[nH]c(=O)n(-c4ccccc4OC)c3n2)cc1` [Compound 20a, 2-(4-Ethoxyphenyl)-9-(2-methoxyphenyl)-8-oxopurine-6-carbohydrazide] are 273.7 to 274.5 °C, 65.3 µM and 60.9 µM.
On the same counts, the results for `CCOc1ccc(-c2nc(C(=N)NO)c3nc(N)n(-c4ccccc4OC)c3n2)cc1` [Compound 36a, 8-Amino-2-(4-ethoxyphenyl)-9-(2-methoxyphenyl)purine-6-(N-hydroxy)carboximidamide] are 245 to 247 °C, 15.4 µM and 11.9 µM.
On the same counts, the results for `CCOc1ccc(-c2nc(C(=N)NOC(=O)OCc3ccccc3)c3[nH]c(=O)n(-c4ccccc4OC)c3n2)cc1` [Compound 22a, 2-(4-Ethoxyphenyl)-9-(2-methoxyphenyl)-8-oxopurine-6-[N-(benzyloxycarbonyl)oxy]carboximidamide] are 246 to 248 °C, 3.9 µM and 3.1 µM.
`CCOc1ccc(-c2nc(C(=O)NN(C)C)c3[nH]c(=O)n(-c4ccccc4OC)c3n2)cc1` [Compound 20b, 2-(4-Ethoxyphenyl)-9-(2-methoxyphenyl)-8-oxopurine-6-(N′,N′-dimethyl)carbohydrazide] returned a melting point of 279.6 to 281 °C. The compound further gave an IC50 in data set [1] of 47.2 µM. For the same compound, in data set [2] (setting [3]), the IC50 was 6.9 µM.
On the same counts, the results for `CCOc1ccc(-c2nc(C#N)c3[nH]c(=O)n(-c4ccc(C(=O)OC)cc4)c3n2)cc1` [Compound 12b, 2-(4-Ethoxyphenyl)-9-(4-methoxycarbonylphenyl)-8-oxopurine-6-carbonitrile] are 311.1 to 312.2 °C, 3.9 µM and 9.8 µM.
On the same counts, the results for `CCOc1ccc(-c2nc(C(=O)NOC)c3[nH]c(=O)n(-c4ccccc4OC)c3n2)cc1` [Compound 19b, 2-(4-Ethoxyphenyl)-9-(2-methoxyphenyl)-8-oxopurine-6-(N-methoxy)carb oxamide] are 260.5 to 261.6 °C, 2.8 µM and 0.3 µM.
On the same counts, the results for `CCOc1ccc(-c2nc(C(=N)NO)c3c(n2)n(-c2ccccc2OC)c(=O)n3C)cc1` [Compound 21a, 2-(4-Ethoxyphenyl)-9-(2-methoxyphenyl)-7-methyl-8-oxopurine-6-(N-hydroxy)carboximidamide] are 229 to 231 °C, 87 µM and 30 µM.
The compound `CCOc1ccc(-c2nc(C#N)c3[nH]c(=O)n(-c4cccc([N+](=O)[O-])c4)c3n2)cc1` [Compound 12e, 2-(4-Ethoxyphenyl)-9-(3-nitrophenyl)-8-oxopurine-6-carbonitrile] displayed a melting point of 296.1 to 297.8 °C. The same compound yielded an IC50 in data set [1] of 3.5 µM. Moreover, the IC50 in data set [2] (setting [3]) worked out at 4.1 µM.
On the same counts, the results for `CCOc1ccc(-c2nc(C#N)c3[nH]c(=O)n(-c4ccc([N+](=O)[O-])cc4)c3n2)cc1` [Compound 12d, 2-(4-Ethoxyphenyl)-9-(4-nitrophenyl)-8-oxopurine-6-carbonitrile] are 293.2 to 294.8 °C, 2.6 µM and 6.2 µM.
On the same counts, the results for `CCCCNC(=N)c1nc(-c2ccc(OCC)cc2)nc2c1[nH]c(=O)n2-c1ccccc1OC` [Compound 13a, 2-(4-Ethoxyphenyl)-9-(2-methoxyphenyl)-8-oxopurine-6-(N-butyl)carboximidamide] are 375 to 377 °C, 11.6 µM and 79 µM.
For `CCOc1ccc(-c2nc(C(=N)NOC)c3c(n2)n(-c2ccccc2OC)c(=O)n3C)cc1` [Compound 21b, 2-(4-Ethoxyphenyl)-9-(2-methoxyphenyl)-7-methyl-8-oxopurine-6-(N-methoxy)carboximidamide], the half-inhibitory concentration (IC50) in data set [1] was 56 µM; in data set [2] (setting [3]), 42 µM.
The compound `CCOc1ccc(-c2nc(C#N)c3nc(OC(=O)Oc4ccccc4)n(-c4ccccc4OC)c3n2)cc1` [Compound 17d, 6-Cyano-2-(4-ethoxyphenyl)-9-(2-methoxyphenyl)purin-8-yl phenyl carbonate] displayed a melting point of 247 to 249 °C. This compound came in with an IC50 in data set [1] of 16.9 ± 11.5 µM. Besides, the IC50 in data set [2] (setting [3]) was 25.1 ± 0.4 µM.
Consider `CCOc1ccc(-c2nc(C#N)c3nc(OC(=O)OCc4ccccc4)n(-c4ccccc4OC)c3n2)cc1` [Compound 17c, Benzyl 6-cyano-2-(4-ethoxyphenyl)-9-(2-methoxyphenyl)purin-8-yl carbonate], for which the melting point was in the range of 228 to 230 °C. In data set [1], this compound displayed a half-inhibitory concentration (IC50) of 48.6 µM. In addition, in data set [2] (setting [3]), the IC50 was determined as 34 µM.
On the same counts, the results for `CCOc1ccc(-c2nc(C(=O)O)c3nc(S)n(-c4ccccc4)c3n2)cc1` [Compound 29a, 2-(4-Ethoxyphenyl)-8-mercapto-9-phenylpurine-6-carboxylic acid] are 320 °C (dec.), 91 µM and 43.6 µM.
On the same counts, the results for `CCOc1ccc(-c2nc(-c3noc(C)n3)c3[nH]c(=O)n(-c4ccccc4OC)c3n2)cc1` [Compound 24a, 2-(4-Ethoxyphenyl)-9-(2-methoxyphenyl)-6-(5-methyl-1,2,4-oxadiazol-3-yl)purin-8-one] are 291 to 293 °C, 64 µM and 17 µM.
As to `CCCCOc1ccc(-c2nc(C(N)=O)c3[nH]c(=O)n(-c4ccccc4OC)c3n2)cc1` [Compound 5c, 2-(4-Butoxyphenyl)-9-(2-methoxyphenyl)-8-oxopurine-6-carboxamide], the melting point is 268.7 to 270.2 °C. In data set [2] (H1975, Table 2, read-out: IC50 against the growth of H1975 lung cancer cells), the 50% inhibitory concentration (IC50) amounted to 4.66 ± 0.05 µM.
Regarding `CCOc1ccc(-c2nc(C#N)c3nc(Cl)n(-c4ccccc4OC)c3n2)cc1` [Compound 31a, 8-Chloro-2-(4-ethoxyphenyl)-9-(2-methoxyphenyl)purine-6-carbonitrile], the melting point lay in the range of 215 to 217 °C. This compound had a half-maximal inhibitory concentration (IC50) in data set [1] of 1.6 µM. For the same compound, the half-maximal inhibitory concentration (IC50) in data set [2] (setting [3]) worked out at 0.7 µM.
On the same counts, the results for `CCOc1ccc(-c2nc(C(N)=O)c3[nH]c(=O)n(-c4ccc([N+](=O)[O-])cc4)c3n2)cc1` [Compound 5k, 2-(4-Ethoxyphenyl)-9-(4-nitrophenyl)-8-oxopurine-6-carboxamide] are 307.6 to 309 °C, 26 µM and 7 µM.
